Experimental data reported in patent US10316050B2, “PT (IV) complexes containing 4,4′-disubstituted-2,2′-bipyridyl and their use in cancer therapy” (THE BOARD OF REGENTS OF THE NEVADA SYSTEM OF HIGHER …, priority 2014, dated 2019).
Read-outs that look alike come from different tables or passages of the source.

Experiments:
Assay type in all cases: cell-based, human
[1] = system: MDA-MB-231 breast cancer cells; assay: MTS cell viability assay, MDA-MB-231; settings: read-out: EC50 (effective concentration that resulted in 50% cell viability)
Method: (§1) Human breast (HCC38, MCF-7, MDA-MB-231, SK-BR-3, T-47D, and ZR-75-1), lung (A549 and H520), and prostate (DU145 and PC-3) cancer cell lines were obtained from American Culture Type Collection (ATCC). The HCC38, MCF-7, MDA-MB-231, SK-BR-3, T-47D, ZR-75-1, and A549 cells were grown in MEM supplemented with 10% FBS, 25 mM HEPES buffer (pH 7.4), penicillin (100 U/mL), and streptomycin (100 μg/mL). The H520, DU145, and PC-3 cell lines were grown in RPMI-1640 supplemented with 10% FBS, 25 mM HEPES buffer (pH 7.4), penicillin (100 U/mL), and streptomycin (100 μg/mL). All cell lines were maintained at 37° C. in a humidified, 5% CO2 atmosphere.
(§2) Cells were cultured at a density of 2-3.5×10^3 cells per well in flat bottomed 96-well plates in 100 μL of complete growth medium and incubated for 2 days to reach ˜50% confluence. The cells were then treated with solvent or the appropriate drugs (CDDP stock was dissolved in 0.15 M NaCl, carboplatin stock was dissolved in 5% glucose, synthesized Pt(IV) complexes were dissolved in DMSO) for 1 hour, washed three times with 100 μL PBS, and incubated in 100 μL of fresh medium. After 2 days, the medium was replaced with 120 μL of medium containing CellTiter 96® Aqueous One Solution Reagent (MTS reagent) (Promega, Madison, Wis.). The cells were incubated at 37° C. for 4 hours and the cell viability was determined by measuring the absorbance at 490 nm using a Tecan Infinite M1000 microplate reader. The 48 h treatment was done in a similar manner, except the cells were not washed after treatment and the MTS reagent was immediately added. Viability of treated groups was calculated as a percent of control and graphed with GraphPad Prism.
(§3) The anti-proliferative activities of Pt(IV) complexes were determined in two lung (A549 and H520), two prostate (DU145 and PC-3), and six breast (HCC38, MCF-7, MDA-MB-231, SK-BR-3, T-47D, and ZR-75-1) cancer cell lines. The cells were treated with increasing concentrations of cisplatin (CDDP), carboplatin, or the Pt(IV) complexes for 1 or 48 hours, and the viability was measured using an MTS colorimetric cell proliferation assay. Graphs of the results are shown for DU145 (FIG. 8A), PC-3 (FIG. 8B), SK-BR-3 (FIG. 8C), ZR-75-1 (FIG. 8D), A549 (FIG. 8E), and MCF-7 (FIG. 8F).

[2] = system: DU145 prostate cancer cells; settings: for EC50: read-out: EC50 (effective concentration that resulted in 50% cell viability); for effect on cell viability (in words): DU145, 1 hour treatment (FIG. 8A, top), up to 1 mM carboplatin, 100 μM Pt(IV)-1C, 50 μM Pt(IV)-2C
Method: as §1, §2, §3
(§4) The anti-proliferative activities of certain Pt(II) complexes were determined in DU145, PC-3, and SK-BR-3 cells. The cells were treated with increasing concentrations of cisplatin (CDDP) or the Pt(II) complexes for 1 or 48 hours, and the viability was measured using an MTS colorimetric cell proliferation assay.

[3] = system: MCF-7 breast cancer cells; assay: MTS cell viability assay, MCF-7; settings: for EC50: read-out: EC50 (effective concentration that resulted in 50% cell viability)
Method: as §1, §2, §3

H520 lung cancer cells = assay: MTS cell viability assay, H520; settings: read-out: EC50 (effective concentration that resulted in 50% cell viability)
Method: as §1, §2, §3

[4] = system: T-47D breast cancer cells; assay: MTS cell viability assay, T-47D
Method: as §1, §2, §3

[5] = system: SK-BR-3 breast cancer cells; assay: MTS cell viability assay, SK-BR-3; settings: read-out: EC50 (effective concentration that resulted in 50% cell viability)
Method: as §1, §2, §3, §4

[6] = system: PC-3 prostate cancer cells; assay: MTS cell viability assay, PC-3; settings: read-out: EC50 (effective concentration that resulted in 50% cell viability)
Method: as §1, §2, §3, §4

[7] = system: HCC38 breast cancer cells; assay: MTS cell viability assay, HCC38; settings: read-out: EC50 (effective concentration that resulted in 50% cell viability)
Method: as §1, §2, §3

A549 lung cancer cells = assay: MTS cell viability assay, A549; settings: for EC50: read-out: EC50 (effective concentration that resulted in 50% cell viability)
Method: as §1, §2, §3

[8] = system: ZR-75-1 breast cancer cells; assay: MTS cell viability assay, ZR-75-1; settings: read-out: EC50 (effective concentration that resulted in 50% cell viability)
Method: as §1, §2, §3

[9] = MDA-MB-231, 1 h treatment, Table 3
[10] = 1 h treatment, Table 3, read-out: EC50 (effective concentration that resulted in 50% cell viability)
[11] = 48 h, Table 5, read-out: EC50 (effective concentration that resulted in 50% cell viability)
[12] = SK-BR-3, 1 h treatment, Table 3
[13] = ZR-75-1, 1 h treatment, Table 3

CCOc1ccnc(-c2cc(OCC)ccn2)c1.[Cl][Pt][Cl] [Pt(II)-2C]
EC50 ([1]; MDA-MB-231, 1 h treatment, Table 2): 30 ± 20 µM | EC50 ([1]; MDA-MB-231, 48 h treatment, Table 4): 20 ± 6 µM | EC50 ([2]; DU145, 1 h treatment, Table 2): 20 ± 5 µM | EC50 ([2]; DU145, 48 h treatment, Table 4): 11 ± 4 µM | EC50 ([3]; MCF-7, 1 h treatment, Table 2): > 100 µM | EC50 ([3]; MCF-7, 48 h treatment, Table 4): > 100 µM | EC50 (H520 lung cancer cells; H520, 1 h treatment, Table 2): > 100 µM | EC50 (H520 lung cancer cells; H520, 48 h treatment, Table 4): 21 ± 1 µM | EC50 ([4]; 1 h treatment, Table 2, read-out: EC50 (effective concentration that resulted in 50% cell viability)): 5 ± 2 µM | EC50 ([4]; 48 h treatment, Table 4, read-out: EC50 (effective concentration that resulted in 50% cell viability)): 2.2 ± 0.4 µM | EC50 ([5]; SK-BR-3, 1 h treatment, Table 2): 2.2 ± 0.2 µM | EC50 ([5]; SK-BR-3, 48 h treatment, Table 4): 1.8 µM | EC50 ([6]; PC-3, 1 h treatment, Table 2): 22 ± 5 µM | EC50 ([6]; PC-3, 48 h treatment, Table 4): 21 ± 7 µM | EC50 ([7]; HCC38, 1 h treatment, Table 2): 18 ± 4 µM | EC50 ([7]; HCC38, 48 h treatment, Table 4): 20 ± 3 µM | EC50 (A549 lung cancer cells; A549, 1 h treatment, Table 2): > 100 µM | EC50 (A549 lung cancer cells; A549, 48 h treatment, Table 4): 66 ± 7 µM | EC50 ([8]; ZR-75-1, 1 h treatment, Table 2): 58 ± 15 µM | EC50 ([8]; ZR-75-1, 48 h treatment, Table 4): 16.5 µM

CC(=O)[O][Pt]([Cl])([Cl])[O]C(C)=O.CCOc1ccnc(-c2cc(OCC)ccn2)c1 [Pt(IV)-2C, [Pt(IV)Cl2(OAc)2(4,4′-diethoxy-2,2′-bipyridine)]]
EC50 [1, 9]: > 100 µM | EC50 ([1]; MDA-MB-231, 48 h, Table 5): 28 ± 7 µM | effect on cell viability (in words) [2]: did not have any effects | EC50 ([2]; DU145, 1 h treatment, Table 3): > 50 µM | EC50 ([2]; DU145, 48 h, Table 5): 10 ± 4 µM | EC50 ([3]; MCF-7, 1 h treatment, Table 3): > 100 µM | EC50 ([3]; MCF-7, 48 h, Table 5): > 100 µM | effect on cell viability (in words) ([3]; MCF-7, 48 hour treatment (FIG. 8F)): had no effect | EC50 (H520 lung cancer cells; H520, 1 h treatment, Table 3): > 100 µM | EC50 (H520 lung cancer cells; H520, 48 h, Table 5): 61 ± 2 µM | EC50 [4, 10]: 46 ± 8 µM | EC50 [4, 11]: 0.95 ± 0.03 µM | EC50 [5, 12]: 40 ± 10 µM | EC50 ([5]; SK-BR-3, 48 h, Table 5): 8.3 ± 0.7 µM | EC50 ([6]; PC-3, 1 h treatment, Table 3): > 50 µM | EC50 ([6]; PC-3, 48 h, Table 5): 20 ± 2 µM | EC50 ([7]; HCC38, 1 h treatment, Table 3): 93 ± 10 µM | EC50 ([7]; HCC38, 48 h, Table 5): 30 ± 9 µM | EC50 (A549 lung cancer cells; A549, 1 h treatment, Table 3): > 50 µM | EC50 (A549 lung cancer cells; A549, 48 h, Table 5): > 50 µM | effect on cell viability (in words) (A549 lung cancer cells; A549, 48 hour treatment (FIG. 8E)): had no effect | EC50 [8, 13]: > 50 µM | EC50 ([8]; ZR-75-1, 48 h, Table 5): 17 ± 7 µM

CC(=O)[O][Pt]([Cl])([Cl])[O]C(C)=O.CCCOc1ccnc(-c2cc(OCCC)ccn2)c1 [Pt(IV)-3C, [Pt(IV)Cl2(OAc)2(4,4′-dipropoxy-2,2′-bipyridine)]]
EC50 [1, 9]: 34 ± 7 µM | EC50 ([1]; MDA-MB-231, 48 h, Table 5): 6.1 ± 0.4 µM | effect on cell viability (in words) [2]: least effective among the five active compounds | EC50 ([2]; DU145, 1 h treatment, Table 3): 24 ± 7 µM | EC50 ([2]; DU145, 48 h, Table 5): 1 ± 1 µM | effect on cell viability (in words) ([3]; MCF-7, 1 hour treatment, at the concentrations tested (FIG. 8F)): did not have any effect | EC50 ([3]; MCF-7, 1 h treatment, Table 3): > 100 µM | EC50 ([3]; MCF-7, 48 h, Table 5): 29 ± 2 µM | EC50 (H520 lung cancer cells; H520, 1 h treatment, Table 3): 80 ± 20 µM | EC50 (H520 lung cancer cells; H520, 48 h, Table 5): 8 ± 6 µM | EC50 [4, 10]: 24 ± 3 µM | EC50 [4, 11]: 0.59 ± 0.01 µM | EC50 [5, 12]: 19 ± 2 µM | EC50 ([5]; SK-BR-3, 48 h, Table 5): 0.9 ± 0.1 µM | EC50 ([6]; PC-3, 1 h treatment, Table 3): 23 ± 0.3 µM | EC50 ([6]; PC-3, 48 h, Table 5): 1.1 ± 0.4 µM | EC50 ([7]; HCC38, 1 h treatment, Table 3): 26 ± 6 µM | EC50 ([7]; HCC38, 48 h, Table 5): 8 ± 1 µM | effect on cell viability (in words) (A549 lung cancer cells; A549, 1 hour treatment, at the concentrations tested (FIG. 8E)): did not have any effect | EC50 (A549 lung cancer cells; A549, 1 h treatment, Table 3): > 50 µM | EC50 (A549 lung cancer cells; A549, 48 h, Table 5): 23 ± 1 µM | EC50 [8, 13]: 24 ± 3 µM | EC50 ([8]; ZR-75-1, 48 h, Table 5): 1.21 ± 0.04 µM
